According to patent US9828360B2 (Array BioPharma Inc., priority 2012, dated 2017):

Experiments:
Experiment in all cases: KinaseProfiler off-target kinase profiling
Type in all cases: biochemical
Settings in all cases: 10 μM, ATP near Km
PRKG1alpha = target: T1, PRKG1alpha (Homo sapiens, UniProt Q13976)
T1 construct: purchased Millipore, Inc. (KinaseProfiler service)
Procedure, shortened: (§1)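 With ATP kept near each kinase's Km, a 10 μM dose of compound was tested twice. The reported number is percent of control, averaged across the pair.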

ITK = target: T2, ITK (Homo sapiens, UniProt Q08881)
T2 construct: purchased Millipore, Inc. (KinaseProfiler service)
Procedure, shortened: as §1

HIPK3 = target: T3, HIPK3 (Homo sapiens, UniProt Q9H422)
T3 construct: purchased Millipore, Inc. (KinaseProfiler service)
Procedure, shortened: as §1

DCAMKL2 = target: T4, DCAMKL2 (Homo sapiens, UniProt Q8N568)
T4 construct: purchased Millipore, Inc. (KinaseProfiler service)
Procedure, shortened: as §1

ERK2 = target: T5, ERK2 (Homo sapiens, UniProt P28482)
T5 construct: purchased Millipore, Inc. (KinaseProfiler service)
Procedure, shortened: as §1

Rsk3 = target: T6, Rsk3 (Homo sapiens, UniProt Q15349)
T6 construct: purchased Millipore, Inc. (KinaseProfiler service)
Procedure, shortened: as §1

TSSK1 = target: T7, TSSK1 (Homo sapiens, UniProt Q9BXA7)
T7 construct: purchased Millipore, Inc. (KinaseProfiler service)
Procedure, shortened: as §1

EphA4 = target: T8, EphA4 (Homo sapiens, UniProt P54764)
T8 construct: purchased Millipore, Inc. (KinaseProfiler service)
Procedure, shortened: as §1

EphB3 = target: T9, EphB3 (Homo sapiens, UniProt P54753)
T9 construct: purchased Millipore, Inc. (KinaseProfiler service)
Procedure, shortened: as §1

c-RAF = target: T10, c-RAF (Homo sapiens, UniProt P04049, Y340D/Y341D)
T10 construct: purchased Millipore, Inc. (KinaseProfiler service)
Procedure, shortened: as §1

PKD2 = target: T11, PKD2 (Homo sapiens, UniProt Q9BZL6)
T11 construct: purchased Millipore, Inc. (KinaseProfiler service)
T11 sequence (Q9BZL6 whole entry): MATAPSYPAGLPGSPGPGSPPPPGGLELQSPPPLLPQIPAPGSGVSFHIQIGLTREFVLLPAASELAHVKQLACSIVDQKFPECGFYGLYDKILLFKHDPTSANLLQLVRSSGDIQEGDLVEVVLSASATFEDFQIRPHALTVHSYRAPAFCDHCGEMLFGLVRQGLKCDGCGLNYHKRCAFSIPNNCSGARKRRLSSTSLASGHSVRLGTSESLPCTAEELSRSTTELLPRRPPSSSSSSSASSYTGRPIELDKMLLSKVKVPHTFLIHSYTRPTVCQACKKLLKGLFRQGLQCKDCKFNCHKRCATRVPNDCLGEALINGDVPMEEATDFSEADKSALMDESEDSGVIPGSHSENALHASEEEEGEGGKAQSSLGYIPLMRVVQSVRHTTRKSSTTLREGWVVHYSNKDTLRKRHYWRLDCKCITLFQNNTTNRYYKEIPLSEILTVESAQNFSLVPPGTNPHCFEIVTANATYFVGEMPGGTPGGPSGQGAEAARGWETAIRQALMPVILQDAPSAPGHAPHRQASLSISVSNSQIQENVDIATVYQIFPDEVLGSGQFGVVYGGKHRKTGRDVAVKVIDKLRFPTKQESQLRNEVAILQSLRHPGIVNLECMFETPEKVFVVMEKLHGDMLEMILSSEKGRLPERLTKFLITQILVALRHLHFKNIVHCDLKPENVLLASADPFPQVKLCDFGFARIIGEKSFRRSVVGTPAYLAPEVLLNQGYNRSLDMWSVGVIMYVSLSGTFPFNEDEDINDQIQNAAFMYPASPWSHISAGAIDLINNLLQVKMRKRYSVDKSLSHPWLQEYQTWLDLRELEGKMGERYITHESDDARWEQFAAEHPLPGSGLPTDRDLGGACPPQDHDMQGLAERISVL
Procedure, shortened: as §1

HIPK2 = target: T12, HIPK2 (Homo sapiens, UniProt Q9H2X6)
T12 construct: purchased Millipore, Inc. (KinaseProfiler service)
Procedure, shortened: as §1

TrkB = target: T13, TrkB (Homo sapiens, UniProt Q16620)
T13 construct: purchased Millipore, Inc. (KinaseProfiler service)
Procedure, shortened: as §1

Lyn = target: T14, Lyn (Homo sapiens, UniProt P07948)
T14 construct: purchased Millipore, Inc. (KinaseProfiler service)
Procedure, shortened: as §1

PKCepsilon = target: T15, PKCepsilon (Homo sapiens, UniProt Q02156)
T15 construct: purchased Millipore, Inc. (KinaseProfiler service)
Procedure, shortened: as §1

TAO3 = target: T16, TAO3 (Homo sapiens, UniProt Q9H2K8)
T16 construct: purchased Millipore, Inc. (KinaseProfiler service)
Procedure, shortened: as §1

CHK2 = target: T17, CHK2 (Homo sapiens, UniProt O96017)
T17 construct: purchased Millipore, Inc. (KinaseProfiler service)
T17 sequence (O96017 whole entry): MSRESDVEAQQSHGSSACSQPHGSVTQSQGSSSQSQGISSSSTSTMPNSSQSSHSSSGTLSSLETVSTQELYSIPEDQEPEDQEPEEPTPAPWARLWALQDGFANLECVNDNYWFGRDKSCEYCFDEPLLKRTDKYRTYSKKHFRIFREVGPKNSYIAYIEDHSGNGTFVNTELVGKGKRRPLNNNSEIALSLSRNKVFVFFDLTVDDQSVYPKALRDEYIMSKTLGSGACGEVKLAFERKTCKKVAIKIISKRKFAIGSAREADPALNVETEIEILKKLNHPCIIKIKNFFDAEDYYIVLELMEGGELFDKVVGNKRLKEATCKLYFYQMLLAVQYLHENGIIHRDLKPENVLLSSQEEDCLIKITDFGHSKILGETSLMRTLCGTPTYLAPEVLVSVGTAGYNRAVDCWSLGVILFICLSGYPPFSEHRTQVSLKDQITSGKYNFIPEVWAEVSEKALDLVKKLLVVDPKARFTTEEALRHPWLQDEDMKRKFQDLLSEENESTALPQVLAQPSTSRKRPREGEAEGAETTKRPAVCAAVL
Procedure, shortened: as §1

HIPK1 = target: T18, HIPK1 (Homo sapiens, UniProt Q86Z02)
T18 construct: purchased Millipore, Inc. (KinaseProfiler service)
Procedure, shortened: as §1

MST2 = target: T19, MST2 (Homo sapiens, UniProt Q13188)
T19 construct: purchased Millipore, Inc. (KinaseProfiler service)
T19 sequence (Q13188 whole entry): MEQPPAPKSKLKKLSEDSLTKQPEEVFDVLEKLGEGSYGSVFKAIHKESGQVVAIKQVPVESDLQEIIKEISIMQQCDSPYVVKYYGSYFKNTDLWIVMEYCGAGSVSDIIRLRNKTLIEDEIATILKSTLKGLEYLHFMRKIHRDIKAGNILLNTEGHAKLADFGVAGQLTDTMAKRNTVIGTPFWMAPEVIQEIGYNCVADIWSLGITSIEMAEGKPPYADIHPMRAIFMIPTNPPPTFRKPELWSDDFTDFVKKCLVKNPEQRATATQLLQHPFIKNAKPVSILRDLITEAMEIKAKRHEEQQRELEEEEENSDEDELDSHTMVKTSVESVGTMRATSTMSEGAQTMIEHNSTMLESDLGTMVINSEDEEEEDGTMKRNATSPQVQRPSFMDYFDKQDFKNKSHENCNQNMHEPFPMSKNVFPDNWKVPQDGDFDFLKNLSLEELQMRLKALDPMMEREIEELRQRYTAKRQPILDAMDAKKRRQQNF
Procedure, shortened: as §1

PASK = target: T20, PASK (Homo sapiens, UniProt Q96RG2)
T20 construct: purchased Millipore, Inc. (KinaseProfiler service)
Procedure, shortened: as §1

PKCzeta = target: T21, PKCzeta (Homo sapiens, UniProt Q05513)
T21 construct: purchased Millipore, Inc. (KinaseProfiler service)
Procedure, shortened: as §1

MKK4_m = target: T22, MKK4_m (Mus musculus, UniProt P47809)
T22 construct: purchased Millipore, Inc. (KinaseProfiler service)
Procedure, shortened: as §1

TAO1 = target: T23, TAO1 (Homo sapiens, UniProt Q7L7X3)
T23 construct: purchased Millipore, Inc. (KinaseProfiler service)
T23 sequence (Q7L7X3 whole entry): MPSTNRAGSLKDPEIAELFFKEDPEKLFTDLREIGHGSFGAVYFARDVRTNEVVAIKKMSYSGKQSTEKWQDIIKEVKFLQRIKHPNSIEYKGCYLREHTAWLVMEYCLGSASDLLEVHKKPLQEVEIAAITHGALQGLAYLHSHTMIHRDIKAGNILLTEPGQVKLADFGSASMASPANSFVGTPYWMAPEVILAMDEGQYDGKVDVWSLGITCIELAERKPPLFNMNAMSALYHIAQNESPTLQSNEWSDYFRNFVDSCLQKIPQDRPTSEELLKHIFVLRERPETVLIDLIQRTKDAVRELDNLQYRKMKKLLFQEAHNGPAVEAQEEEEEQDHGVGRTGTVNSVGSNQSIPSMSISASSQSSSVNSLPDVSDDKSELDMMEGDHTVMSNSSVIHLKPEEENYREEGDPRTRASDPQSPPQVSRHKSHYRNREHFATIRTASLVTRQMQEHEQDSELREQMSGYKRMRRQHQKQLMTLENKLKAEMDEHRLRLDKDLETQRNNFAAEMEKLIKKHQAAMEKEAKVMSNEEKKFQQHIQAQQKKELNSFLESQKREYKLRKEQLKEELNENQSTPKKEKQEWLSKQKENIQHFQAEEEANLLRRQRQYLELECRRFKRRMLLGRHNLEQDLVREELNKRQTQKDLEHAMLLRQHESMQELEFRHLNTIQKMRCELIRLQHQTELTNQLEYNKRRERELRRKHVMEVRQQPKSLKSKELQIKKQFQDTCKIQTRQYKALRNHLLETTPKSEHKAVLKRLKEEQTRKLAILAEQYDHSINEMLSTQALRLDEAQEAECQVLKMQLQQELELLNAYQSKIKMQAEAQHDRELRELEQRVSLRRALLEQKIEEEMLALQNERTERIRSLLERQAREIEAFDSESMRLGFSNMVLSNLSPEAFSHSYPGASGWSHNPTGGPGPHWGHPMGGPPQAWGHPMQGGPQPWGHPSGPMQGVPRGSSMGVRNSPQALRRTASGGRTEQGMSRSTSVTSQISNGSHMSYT
Procedure, shortened: as §1

MAPKAP-K3 = target: T24, MAPKAP-K3 (Homo sapiens, UniProt Q16644)
T24 construct: purchased Millipore, Inc. (KinaseProfiler service)
Procedure, shortened: as §1

PAK6 = target: T25, PAK6 (Homo sapiens, UniProt Q9NQU5)
T25 construct: purchased Millipore, Inc. (KinaseProfiler service)
Procedure, shortened: as §1

MYLK = target: T26, MYLK (Homo sapiens, UniProt Q15746)
T26 construct: purchased Millipore, Inc. (KinaseProfiler service)
Procedure, shortened: as §1

PRKG1beta = target: T27, PRKG1beta (Homo sapiens, UniProt Q13976)
T27 construct: purchased Millipore, Inc. (KinaseProfiler service)
Procedure, shortened: as §1

LIMK1 = target: T28, LIMK1 (Homo sapiens, UniProt P53667)
T28 construct: purchased Millipore, Inc. (KinaseProfiler service)
Procedure, shortened: as §1

LOK = target: T29, LOK (Homo sapiens, UniProt O94804)
T29 construct: purchased Millipore, Inc. (KinaseProfiler service)
Procedure, shortened: as §1

Flt3 = target: T30, Flt3 (Homo sapiens, UniProt P36888)
T30 construct: purchased Millipore, Inc. (KinaseProfiler service)
Procedure, shortened: as §1

Fes = target: T31, Fes (Homo sapiens, UniProt P07332)
T31 construct: purchased Millipore, Inc. (KinaseProfiler service)
T31 sequence (P07332 whole entry): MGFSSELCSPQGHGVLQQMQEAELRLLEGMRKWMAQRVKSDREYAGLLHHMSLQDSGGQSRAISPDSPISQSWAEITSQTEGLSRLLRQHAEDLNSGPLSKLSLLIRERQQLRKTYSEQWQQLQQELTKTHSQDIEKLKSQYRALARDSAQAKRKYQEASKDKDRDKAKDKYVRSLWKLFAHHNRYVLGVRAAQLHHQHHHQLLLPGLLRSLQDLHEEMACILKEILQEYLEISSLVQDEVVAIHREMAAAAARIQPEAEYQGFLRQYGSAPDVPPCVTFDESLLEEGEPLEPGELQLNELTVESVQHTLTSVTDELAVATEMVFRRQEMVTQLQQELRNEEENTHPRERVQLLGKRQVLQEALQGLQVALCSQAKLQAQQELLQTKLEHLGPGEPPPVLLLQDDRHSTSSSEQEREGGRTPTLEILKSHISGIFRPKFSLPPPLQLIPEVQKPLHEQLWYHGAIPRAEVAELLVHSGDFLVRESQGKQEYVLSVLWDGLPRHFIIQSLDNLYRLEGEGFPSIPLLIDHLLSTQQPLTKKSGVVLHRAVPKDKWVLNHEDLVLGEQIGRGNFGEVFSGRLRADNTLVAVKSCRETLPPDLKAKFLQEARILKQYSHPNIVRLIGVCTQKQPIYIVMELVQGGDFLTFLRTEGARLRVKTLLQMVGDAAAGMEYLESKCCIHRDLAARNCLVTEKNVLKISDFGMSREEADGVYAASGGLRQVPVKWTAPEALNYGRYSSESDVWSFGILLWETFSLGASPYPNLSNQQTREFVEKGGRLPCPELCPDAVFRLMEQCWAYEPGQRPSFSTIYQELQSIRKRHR
Procedure, shortened: as §1

Syk = target: T32, Syk (Homo sapiens, UniProt P43405)
T32 construct: purchased Millipore, Inc. (KinaseProfiler service)
Procedure, shortened: as §1

SRPK2 = target: T33, SRPK2 (Homo sapiens, UniProt P78362)
T33 construct: purchased Millipore, Inc. (KinaseProfiler service)
Procedure, shortened: as §1

Rse = target: T34, Rse (Homo sapiens, UniProt Q06418)
T34 construct: purchased Millipore, Inc. (KinaseProfiler service)
Procedure, shortened: as §1

EGFR = target: T35, EGFR (Homo sapiens, UniProt P00533)
T35 construct: purchased Millipore, Inc. (KinaseProfiler service)
Procedure, shortened: as §1

PhKgamma2 = target: T36, PhKgamma2 (Homo sapiens, UniProt P15735)
T36 construct: purchased Millipore, Inc. (KinaseProfiler service)
Procedure, shortened: as §1

mTOR = target: T37, mTOR (Homo sapiens, UniProt P42345)
T37 construct: purchased Millipore, Inc. (KinaseProfiler service)
Procedure, shortened: as §1

PAK2 = target: T38, PAK2 (Homo sapiens, UniProt Q13177)
T38 construct: purchased Millipore, Inc. (KinaseProfiler service)
Procedure, shortened: as §1

ERK1 = target: T39, ERK1 (Homo sapiens, UniProt P27361)
T39 construct: purchased Millipore, Inc. (KinaseProfiler service)
T39 sequence (P27361 whole entry): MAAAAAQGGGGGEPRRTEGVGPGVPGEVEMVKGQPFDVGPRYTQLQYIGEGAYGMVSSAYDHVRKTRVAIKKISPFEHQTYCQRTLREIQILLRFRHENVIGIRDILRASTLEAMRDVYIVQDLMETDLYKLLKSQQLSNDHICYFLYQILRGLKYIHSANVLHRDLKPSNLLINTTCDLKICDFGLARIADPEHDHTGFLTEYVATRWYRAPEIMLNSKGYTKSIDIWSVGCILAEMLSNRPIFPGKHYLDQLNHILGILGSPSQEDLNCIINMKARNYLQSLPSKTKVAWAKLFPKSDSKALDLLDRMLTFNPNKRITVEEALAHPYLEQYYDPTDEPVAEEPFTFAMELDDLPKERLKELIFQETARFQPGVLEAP
Procedure, shortened: as §1

AKT3 = target: T40, AKT3 (Homo sapiens, UniProt Q9Y243)
T40 construct: purchased Millipore, Inc. (KinaseProfiler service)
Procedure, shortened: as §1

Met = target: T41, Met (Homo sapiens, UniProt P08581)
T41 construct: purchased Millipore, Inc. (KinaseProfiler service)
Procedure, shortened: as §1

T1 sequence (Q13976 whole entry): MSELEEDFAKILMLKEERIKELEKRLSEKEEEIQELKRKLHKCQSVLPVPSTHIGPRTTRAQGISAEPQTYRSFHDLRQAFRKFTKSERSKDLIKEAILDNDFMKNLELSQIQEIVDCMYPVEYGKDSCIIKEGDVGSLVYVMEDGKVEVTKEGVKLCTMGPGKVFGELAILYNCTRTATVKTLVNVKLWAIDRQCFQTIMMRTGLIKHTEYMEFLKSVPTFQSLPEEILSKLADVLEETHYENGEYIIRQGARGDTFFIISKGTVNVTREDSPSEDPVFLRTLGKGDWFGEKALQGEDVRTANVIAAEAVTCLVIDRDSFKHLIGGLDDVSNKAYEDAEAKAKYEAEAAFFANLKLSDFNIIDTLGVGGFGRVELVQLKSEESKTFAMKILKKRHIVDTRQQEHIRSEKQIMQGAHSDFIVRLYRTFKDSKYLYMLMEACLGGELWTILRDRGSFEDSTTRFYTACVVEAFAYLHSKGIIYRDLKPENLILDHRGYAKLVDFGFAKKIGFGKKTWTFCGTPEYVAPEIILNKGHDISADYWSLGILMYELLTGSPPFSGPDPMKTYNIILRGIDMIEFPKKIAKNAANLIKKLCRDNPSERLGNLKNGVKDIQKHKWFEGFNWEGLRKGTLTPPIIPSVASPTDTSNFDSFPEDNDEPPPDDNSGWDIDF

COCCN1C[C@@H](NC(=O)Nc2sc(C(C)C)nc2-c2ccccc2)[C@H](c2ccccc2)C1 [Example 48, 1-(2-isopropyl-4-phenylthiazol-5-yl)-3-((3S,4R)-1-(2-methoxyethyl)-4-phenylpyrrolidin-3-yl)urea]
Avg POC (PRKG1alpha): 106% of control | Avg POC (ITK): 170.5% of control | Avg POC (HIPK3): 82% of control | Avg POC (DCAMKL2): 142% of control | Avg POC (ERK2): 101% of control | Avg POC (Rsk3): 108% of control | Avg POC (TSSK1): 99.5% of control | Avg POC (EphA4): 105.5% of control | Avg POC (EphB3): 119% of control | Avg POC (c-RAF): 106% of control | Avg POC (PKD2): 115.5% of control | Avg POC (HIPK2): 103% of control | Avg POC (TrkB): 9% of control | Avg POC (Lyn): 108.5% of control | Avg POC (PKCepsilon): 103.5% of control | Avg POC (TAO3): 105.5% of control | Avg POC (CHK2): 107.5% of control | Avg POC (HIPK1): 119.5% of control | Avg POC (MST2): 109.5% of control | Avg POC (PASK): 103% of control | Avg POC (PKCzeta): 108% of control | Avg POC (MKK4_m): 122% of control | Avg POC (TAO1): 101% of control | Avg POC (MAPKAP-K3): 75.5% of control | Avg POC (PAK6): 94% of control | Avg POC (MYLK): 107% of control | Avg POC (PRKG1beta): 105% of control | Avg POC (LIMK1): 104% of control | Avg POC (LOK): 107.5% of control | Avg POC (Flt3): 99% of control | Avg POC (Fes): 86.5% of control | Avg POC (Syk): 86.5% of control | Avg POC (SRPK2): 109% of control | Avg POC (Rse): 117% of control | Avg POC (EGFR): 111% of control | Avg POC (PhKgamma2): 110% of control | Avg POC (mTOR): 99% of control | Avg POC (PAK2): 101.5% of control | Avg POC (ERK1): 100% of control | Avg POC (AKT3): 106.5% of control | Avg POC (Met): 109% of control
